Laboratory results published in paper PMC8892231 (EMBO Reports, 2021).

Legend:
qC10ORF99 promoter = test: Luciferase reporter assay, Japanese quail C10ORF99 promoter in HEK293 cells; format: cell-based; conditions: promoter-pGL4.14 (300 ng), sodium propionate or sodium acetate in serum-free medium for 12 h, normalized to β-galactosidase, vs parental PGL4.14 plasmid, n = 3
cGPR15‐A283L = test: Intracellular calcium assay, reverse mutant cGPR15‐A283L; format: cell-based, Latimeria chalumnae; conditions: CHO cells, Fluo-4 calcium assay; peptide 10 nM
cGPR15‐P246K = test: Intracellular calcium assay, reverse mutant cGPR15‐P246K; format: cell-based, Lepisosteus oculatus/Scleropages formosus; conditions: CHO cells, Fluo-4 calcium assay; peptide 10 nM

CC(=O)O [acetate]
luciferase activity of the promoter construct (qC10ORF99 promoter): significantly increased

CCC(=O)O [propionate]
luciferase activity of the promoter construct (qC10ORF99 promoter): significantly increased

AAPSPLFVPGPLPQL [qC10ORF99]
activation of the mutant receptor based on Ca2+ measurements (cGPR15‐A283L): activated | activation of the mutant receptor based on Ca2+ measurements (cGPR15‐P246K): activated
